Target: T1, recombinant Vps34 (Homo sapiens, UniProt Q8NEB9)
T1 construct: purchased Invitrogen PV5126
Assay: Phosphorylation of phosphatidylinositol (PI) by Vps34 in vitro, ADP detected by TR-FRET (HTRF Transcreener ADP)
Type: biochemical
Conditions: 10 μM ATP, 55 μg/ml PI, approximately 3 nM Vps34, 1 hour at ambient temperature; absolute IC50, mean of two independent experiments; read-out: IC50 activity range

T1 sequence (Q8NEB9 whole entry): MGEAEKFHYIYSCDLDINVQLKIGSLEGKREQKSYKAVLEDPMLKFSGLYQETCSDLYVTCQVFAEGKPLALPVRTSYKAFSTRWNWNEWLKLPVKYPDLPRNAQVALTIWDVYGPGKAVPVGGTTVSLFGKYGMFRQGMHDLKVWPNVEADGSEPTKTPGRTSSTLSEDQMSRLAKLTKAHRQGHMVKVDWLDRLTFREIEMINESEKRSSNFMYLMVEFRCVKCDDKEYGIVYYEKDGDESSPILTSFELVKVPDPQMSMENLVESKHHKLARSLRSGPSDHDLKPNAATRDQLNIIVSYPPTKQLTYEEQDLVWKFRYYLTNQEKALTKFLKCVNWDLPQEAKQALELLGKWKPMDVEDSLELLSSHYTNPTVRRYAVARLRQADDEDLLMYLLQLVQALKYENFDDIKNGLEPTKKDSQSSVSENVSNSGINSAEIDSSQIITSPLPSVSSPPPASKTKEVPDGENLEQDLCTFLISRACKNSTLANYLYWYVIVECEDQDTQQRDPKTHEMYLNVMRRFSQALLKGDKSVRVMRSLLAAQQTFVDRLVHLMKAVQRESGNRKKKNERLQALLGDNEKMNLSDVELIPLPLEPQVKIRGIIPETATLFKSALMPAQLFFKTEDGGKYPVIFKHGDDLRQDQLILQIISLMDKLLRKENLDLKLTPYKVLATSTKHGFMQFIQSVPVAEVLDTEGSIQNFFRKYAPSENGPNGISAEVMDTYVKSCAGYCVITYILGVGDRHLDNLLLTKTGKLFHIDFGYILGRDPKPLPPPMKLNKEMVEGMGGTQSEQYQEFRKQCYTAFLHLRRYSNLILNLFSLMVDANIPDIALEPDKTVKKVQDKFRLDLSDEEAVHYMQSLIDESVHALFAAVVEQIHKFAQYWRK

| SMILES | IC50 |
| --- | --- |
| Cc1nocc1C(=O)CN1c2nc(N3CCOC[C@H]3C)cc(=O)n2CC[C@H]1C(F)(F)F [Example 268, (S)-9-[2-(3-Methyl-isoxazol-4-yl)-2-oxo-ethyl]-2-((R)-3-methyl-morpholin-4-yl)-8-trifluoromethyl-6,7,8,9-tetrahydro-pyrimido[1,2-a]-pyrimidin-4-one] | > 100 nM |
| C[C@@H]1COCCN1c1cc(=O)n2c(n1)N(CC(=O)C1CCOC1)[C@H](C(F)(F)F)CC2 (stereo partly drawn) [Example 269, (S)-2-((R)-3-Methyl-morpholin-4-yl)-9-[2-oxo-2-(tetrahydro-furan-3-yl)ethyl]-8-trifluoromethyl-6,7,8,9-tetrahydro-pyrimido[1,2-a]-pyrimidin-4-one] | 10 to 100 nM |
| Cc1nc(CN2c3nc(N4CC5CCC(C4)O5)cc(=O)n3CC[C@H]2C(F)(F)F)no1 [Example 270, (S)-9-(5-Methyl-[1,2,4]oxadiazol-3-yl-methyl)-2-(8-oxa-3-azabicyclo[3.2.1]oct-3-yl)-8-trifluoromethyl-6,7,8,9-tetrahydro-pyrimido[1,2-a]-pyrimidin-4-one] | 10 to 100 nM |
| O=C(CN1c2nc(N3CC4CCC(C3)O4)cc(=O)n2CC[C@H]1C(F)(F)F)C1CC1 [Example 271, (S)-9-(2-Cyclopropyl-2-oxoethyl)-2-(8-oxa-3-azabicyclo[3.2.1]oct-3-yl)-8-trifluoromethyl-6,7,8,9-tetrahydro-pyrimido[1,2-a]-pyrimidin-4-one] | 10 to 100 nM |
| CC(C)C(=O)CN1c2nc(N3CC4CCC(C3)O4)cc(=O)n2CC[C@H]1C(F)(F)F [Example 272, (S)-9-(3-Methyl-2-oxo-butyl)-2-(8-oxa-3-aza-bicyclo[3.2.1]oct-3-yl)-8-trifluoromethyl-6,7,8,9-tetrahydro-pyrimido[1,2-a]-pyrimidin-4-one] | > 100 nM |
| O=C(CN1c2nc(N3CC4CCC(C3)O4)c(F)c(=O)n2CC[C@H]1C(F)(F)F)C1CC1 [Example 273, (S)-9-(2-Cyclopropyl-2-oxoethyl)-3-fluoro-2-(8-oxa-3-aza-bicyclo[3.2.1]oct-3-yl)-8-trifluoromethyl-6,7,8,9-tetrahydro-pyrimido[1,2-a]-pyrimidin-4-one] | 10 to 100 nM |
| CC(C)C(=O)CN1c2nc(N3CC4CCC(C3)O4)c(F)c(=O)n2CC[C@H]1C(F)(F)F [Example 274, (S)-3-Fluoro-9-(3-methyl-2-oxobutyl)-2-(8-oxa-3-aza-bicyclo[3.2.1]oct-3-yl)-8-trifluoromethyl-6,7,8,9-tetrahydro-pyrimido[1,2-a]-pyrimidin-4-one] | 10 to 100 nM |
| Cc1nc(CN2c3nc(N4CC5CCC(C4)O5)c(F)c(=O)n3CC[C@H]2C(F)(F)F)no1 [Example 275, (S)-3-Fluoro-9-(5-methyl-[1,2,4]oxadiazol-3-yl-methyl)-2-(8-oxa-3-azabicyclo[3.2.1]oct-3-yl)-8-trifluoromethyl-6,7,8,9-tetrahydro-pyrimido[1,2-a]-pyrimidin-4-one] | 10 to 100 nM |
| CC(C)CC(=O)CN1c2nc(N3CCOC[C@H]3C)cc(=O)n2CC[C@H]1C(F)(F)F [Example 276, (S)-2-((R)-3-Methyl-morpholin-4-yl)-9-(4-methyl-2-oxo-pentyl)-8-trifluoromethyl-6,7,8,9-tetrahydro-pyrimido[1,2-a]-pyrimidin-4-one] | < 10 nM |
| CC(C)C(=O)CN1c2nc(N3CCOC[C@@H]3C)c(F)c(=O)n2CC[C@H]1C(F)(F)F [Example 278, (S)-3-Fluoro-2-((S)-3-methylmorpholin-4-yl)-9-(3-methyl-2-oxo-butyl)-8-trifluoromethyl-6,7,8,9-tetrahydro-pyrimido[1,2-a]-pyrimidin-4-one] | > 100 nM |
| CC(C)CCC(=O)CN1c2nc(N3CCOC[C@H]3C)c(F)c(=O)n2CC[C@H]1C(F)(F)F [Example 279, (S)-3-Fluoro-2-((R)-3-methylmorpholin-4-yl)-9-(5-methyl-2-oxo-hexyl)-8-trifluoromethyl-6,7,8,9-tetrahydro-pyrimido[1,2-a]-pyrimidin-4-one] | < 10 nM |
| CC(C)CC(=O)CN1c2nc(N3CCOC[C@H]3C)c(F)c(=O)n2CC[C@H]1C(F)(F)F [Example 280, (S)-3-Fluoro-2-((R)-3-methylmorpholin-4-yl)-9-(4-methyl-2-oxo-pentyl)-8-trifluoromethyl-6,7,8,9-tetrahydro-pyrimido[1,2-a]-pyrimidin-4-one] | < 10 nM |
| CCC(CC)C(=O)CN1c2nc(N3CCOC[C@H]3C)cc(=O)n2CC[C@H]1C(F)(F)F [Example 281, (S)-9-(3-Ethyl-2-oxo-pentyl)-2-((R)-3-methylmorpholin-4-yl)-8-trifluoromethyl-6,7,8,9-tetrahydro-pyrimido[1,2-a]-pyrimidin-4-one] | < 10 nM |
| CCC(CC)C(=O)CN1c2nc(N3CCOC[C@H]3C)c(F)c(=O)n2CC[C@H]1C(F)(F)F [Example 282, (S)-9-(3-Ethyl-2-oxo-pentyl)-3-fluoro-2-((R)-3-methylmorpholin-4-yl)-8-trifluoromethyl-6,7,8,9-tetrahydro-pyrimido[1,2-a]-pyrimidin-4-one] | < 10 nM |
| COC(=O)CN1c2nc(N3CCOC[C@H]3C)c(F)c(=O)n2CC[C@H]1C(F)(F)F [Example 283, [(S)-7-Fluoro-8-((R)-3-methylmorpholin-4-yl)-6-oxo-2-trifluoromethyl-3,4-dihydro-2H,6H-pyrimido[1,2-a]-pyrimidin-1-yl]acetic acid methyl ester] | < 10 nM |
| CC(C)C(O)CN1c2nc(N3CCOC[C@H]3C)cc(=O)n2CC[C@H]1C(F)(F)F (stereo partly drawn) [Example 287, (S)-9-(2-Hydroxy-3-methylbutyl)-2-((R)-3-methylmorpholin-4-yl)-8-trifluoromethyl-6,7,8,9-tetrahydro-pyrimido[1,2-a]-pyrimidin-4-one] | < 10 nM |
| CC(C)CCC(=O)CN1c2nc(N3CCOC[C@H]3C)cc(=O)n2CC[C@H]1C(F)(F)F [Example 290, (S)-2-((R)-3-Methyl-morpholin-4-yl)-9-(5-methyl-2-oxo-hexyl)-8-trifluoromethyl-6,7,8,9-tetrahydro-pyrimido[1,2-a]-pyrimidin-4-one] | < 10 nM |
| CCC(C)C(=O)CN1c2nc(N3CCOC[C@H]3C)cc(=O)n2CC[C@H]1C(F)(F)F (stereo partly drawn) [Example 291, (S)-2-((R)-3-Methyl-morpholin-4-yl)-9-(3-methyl-2-oxo-pentyl)-8-trifluoromethyl-6,7,8,9-tetrahydro-pyrimido[1,2-a]-pyrimidin-4-one] | < 10 nM |
| C[C@@H]1COCCN1c1cc(=O)n2c(n1)N(Cc1nc(C(F)(F)F)no1)[C@H](C(F)(F)F)CC2 [Example 292, (S)-2-((R)-3-Methyl-morpholin-4-yl)-8-trifluoromethyl-9-(3-trifluoromethyl-[1,2,4]oxadiazol-5-yl-methyl)-6,7,8,9-tetrahydro-pyrimido[1,2-a]-pyrimidin-4-one] | < 10 nM |
| C[C@@H]1COCCN1c1nc2n(c(=O)c1F)CC[C@@H](C(F)(F)F)N2CC(=O)N1CC2(COC2)C1 [Example 293, (S)-3-Fluoro-2-((R)-3-methylmorpholin-4-yl)-9-[2-(2-oxa-6-aza-spiro[3.3]hept-6-yl)-2-oxoethyl]-8-trifluoromethyl-6,7,8,9-tetrahydro-pyrimido[1,2-a]-pyrimidin-4-one] | < 10 nM |
| Cc1cc(C(=O)CN2c3nc(N4CCOC[C@H]4C)c(F)c(=O)n3CC[C@H]2C(F)(F)F)no1 [Example 294, (S)-3-Fluoro-9-[2-(5-methylisoxazol-3-yl)-2-oxoethyl]-2-((R)-3-methylmorpholin-4-yl)-8-trifluoromethyl-6,7,8,9-tetrahydro-pyrimido[1,2-a]-pyrimidin-4-one] | < 10 nM |
| C[C@@H]1COCCN1c1cc(=O)n2c(n1)N(C[C@H](F)c1ccccc1)[C@H](C(F)(F)F)CC2 [Example 295, (S)-9-(2-Fluoro-2-phenylethyl)-2-((R)-3-methylmorpholin-4-yl)-8-trifluoromethyl-6,7,8,9-tetrahydro-pyrimido[1,2-a]-pyrimidin-4-one] | < 10 nM |
| C[C@@H]1COCCN1c1nc2n(c(=O)c1F)CC[C@@H](C(F)(F)F)N2Cc1ccon1 [Example 296, (S)-3-Fluoro-9-isoxazol-3-ylmethyl-2-((R)-3-methyl-morpholin-4-yl)-8-trifluoromethyl-6,7,8,9-tetrahydro-pyrimido[1,2-a]-pyrimidin-4-one] | < 10 nM |
| C[C@@H]1COCCN1c1nc2n(c(=O)c1F)CC[C@@H](C(F)(F)F)N2Cc1ccnn1C(F)F [Example 297, (S)-9-(2-Difluoromethyl-2H-pyrazol-3-ylmethyl)-3-fluoro-2-((R)-3-methyl-morpholin-4-yl)-8-trifluoromethyl-6,7,8,9-tetrahydro-pyrimido[1,2-a]-pyrimidin-4-one] | < 10 nM |
| C[C@@H]1COCCN1c1cc(=O)n2c(n1)N(Cc1ccon1)C(C)(C)CC2 [Example 298, 9-Isoxazol-3-ylmethyl-8,8-dimethyl-2-((R)-3-methylmorpholin-4-yl)-6,7,8,9-tetrahydro-pyrimido[1,2-a]-pyrimidin-4-one] | 10 to 100 nM |
| Cc1cc(CN2c3nc(N4CCOC[C@H]4C)c(F)c(=O)n3CC[C@H]2C(F)(F)F)on1 [Example 299, (S)-3-Fluoro-9-(3-methylisoxazol-5-yl-methyl)-2-((R)-3-methylmorpholin-4-yl)-8-trifluoromethyl-6,7,8,9-tetrahydro-pyrimido[1,2-a]-pyrimidin-4-one] | < 10 nM |
| CC(C)OCCN1c2nc(N3CCOC[C@H]3C)cc(=O)n2CC[C@H]1C(F)(F)F [Example 300, (S)-9-(2-Isopropoxy-ethyl)-2-((R)-3-methyl-morpholin-4-yl)-8-trifluoromethyl-6,7,8,9-tetrahydro-pyrimido[1,2-a]-pyrimidin-4-one] | < 10 nM |
| C[C@@H]1COCCN1c1cc(=O)n2c(n1)N(c1cccnc1)[C@H](C(F)(F)F)CC2 [Example 301, (S)-2-((R)-3-Methyl-morpholin-4-yl)-9-pyridin-3-yl-8-trifluoromethyl-6,7,8,9-tetrahydro-pyrimido[1,2-a]-pyrimidin-4-one] | < 10 nM |
| C[C@@H]1COCCN1c1cc(=O)n2c(n1)N(c1ccc(C3CC3)nc1)[C@H](C(F)(F)F)CC2 [Example 302, (S)-9-(6-Cyclopropyl-pyridin-3-yl)-2-((R)-3-methylmorpholin-4-yl)-8-trifluoromethyl-6,7,8,9-tetrahydro-pyrimido[1,2-a]-pyrimidin-4-one] | < 10 nM |
